# Measured values published in ChEMBL document CHEMBL4402605, “A Chemical Switch for Transforming a Purine Agonist for Toll-like Receptor 7 to a Clinically Relevant Antagonist” (J Med Chem, 2020).
# Active and inactive are the calls of the source. No cut-off for these calls is given here.
# Assays:
# [1] = molecular target: T1, Toll-like receptor 8 (Homo sapiens) (UniProt Q9NR97); test: Antagonist activity at human TLR8 expressed in HEK-Blue cells assessed as inhibition of CL075-induced NFkappaB activation by measuring reduction in SEAP level up to 50 uM after overnight incubation using qunati-blue reagent by SEAP reporter gene-based spectrophotometric method; format: cell-based
# T1 sequence (whole entry): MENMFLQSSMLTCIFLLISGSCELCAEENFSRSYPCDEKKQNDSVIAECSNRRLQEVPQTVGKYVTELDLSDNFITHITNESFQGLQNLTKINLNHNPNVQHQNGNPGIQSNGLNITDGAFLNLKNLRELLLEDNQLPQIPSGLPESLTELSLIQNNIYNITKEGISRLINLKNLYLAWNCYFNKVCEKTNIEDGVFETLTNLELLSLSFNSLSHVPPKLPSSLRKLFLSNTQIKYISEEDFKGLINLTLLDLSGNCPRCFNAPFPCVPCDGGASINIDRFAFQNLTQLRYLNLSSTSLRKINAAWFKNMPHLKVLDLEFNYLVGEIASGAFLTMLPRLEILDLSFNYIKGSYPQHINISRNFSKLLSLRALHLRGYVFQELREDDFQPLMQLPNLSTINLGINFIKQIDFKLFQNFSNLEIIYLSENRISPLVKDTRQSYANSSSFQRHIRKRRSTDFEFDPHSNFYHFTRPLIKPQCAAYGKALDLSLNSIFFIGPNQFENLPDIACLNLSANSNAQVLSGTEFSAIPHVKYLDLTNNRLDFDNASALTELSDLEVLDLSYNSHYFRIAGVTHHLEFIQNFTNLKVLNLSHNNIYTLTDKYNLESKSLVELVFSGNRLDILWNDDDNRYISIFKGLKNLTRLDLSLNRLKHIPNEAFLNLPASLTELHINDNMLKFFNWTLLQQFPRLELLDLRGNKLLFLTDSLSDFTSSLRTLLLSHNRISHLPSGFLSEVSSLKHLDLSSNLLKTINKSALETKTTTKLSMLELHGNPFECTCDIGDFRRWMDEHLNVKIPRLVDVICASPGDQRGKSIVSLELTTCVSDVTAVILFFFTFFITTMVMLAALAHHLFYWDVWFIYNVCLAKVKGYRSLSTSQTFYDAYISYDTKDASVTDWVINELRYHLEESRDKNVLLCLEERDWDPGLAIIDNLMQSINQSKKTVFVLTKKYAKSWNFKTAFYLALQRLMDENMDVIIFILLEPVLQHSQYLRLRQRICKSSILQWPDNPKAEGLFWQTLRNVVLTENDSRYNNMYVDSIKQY
# Toll-like receptor 7 [2] = molecular target: T2, Toll-like receptor 7 (Homo sapiens, UniProt Q9NYK1)
# T2 sequence (Q9NYK1 whole entry): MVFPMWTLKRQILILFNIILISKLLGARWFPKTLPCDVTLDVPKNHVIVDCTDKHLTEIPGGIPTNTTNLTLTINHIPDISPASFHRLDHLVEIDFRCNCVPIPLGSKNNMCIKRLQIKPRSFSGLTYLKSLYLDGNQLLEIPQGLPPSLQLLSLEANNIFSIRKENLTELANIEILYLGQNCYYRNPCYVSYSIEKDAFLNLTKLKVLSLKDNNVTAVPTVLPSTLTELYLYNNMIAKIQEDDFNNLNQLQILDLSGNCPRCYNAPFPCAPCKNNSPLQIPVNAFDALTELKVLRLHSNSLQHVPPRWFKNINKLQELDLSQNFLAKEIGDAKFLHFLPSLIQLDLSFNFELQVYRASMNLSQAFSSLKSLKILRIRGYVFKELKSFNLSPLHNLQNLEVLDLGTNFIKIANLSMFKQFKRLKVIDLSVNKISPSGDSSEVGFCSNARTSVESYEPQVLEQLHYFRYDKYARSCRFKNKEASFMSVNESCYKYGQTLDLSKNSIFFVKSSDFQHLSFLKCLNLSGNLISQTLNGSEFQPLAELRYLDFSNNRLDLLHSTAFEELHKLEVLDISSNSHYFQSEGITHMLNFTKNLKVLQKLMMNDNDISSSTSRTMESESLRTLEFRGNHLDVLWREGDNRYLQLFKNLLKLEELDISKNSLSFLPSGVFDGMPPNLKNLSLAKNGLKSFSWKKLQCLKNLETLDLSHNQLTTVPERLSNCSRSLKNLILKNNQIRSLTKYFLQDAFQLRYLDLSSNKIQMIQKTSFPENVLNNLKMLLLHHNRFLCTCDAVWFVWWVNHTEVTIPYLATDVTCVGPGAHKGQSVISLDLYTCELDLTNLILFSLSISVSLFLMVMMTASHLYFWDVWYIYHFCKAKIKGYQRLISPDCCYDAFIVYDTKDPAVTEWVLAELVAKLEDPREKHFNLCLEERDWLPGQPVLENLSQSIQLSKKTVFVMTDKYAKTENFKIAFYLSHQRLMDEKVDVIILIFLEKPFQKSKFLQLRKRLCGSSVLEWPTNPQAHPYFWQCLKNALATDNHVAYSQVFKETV
# Description: Antagonist activity at human TLR7 expressed in HEK-Blue cells assessed as inhibition of CL264-induced NFkappaB activation by measuring reduction in SEAP level after overnight incubation using qunati-blue reagent by SEAP reporter gene-based spectrophotometric method
# Toll-like receptor 7 [3] = molecular target: T2, Toll-like receptor 7; test: Agonist activity at human TLR7 expressed in HEK-Blue cells assessed as induction of NFkappaB activation by measuring increase in SEAP level after overnight incubation using qunati-blue reagent by SEAP reporter gene-based spectrophotometric method; format: cell-based
Compound,inhibition [1],IC50 (Toll-like receptor 7 [2]),EC50 (Toll-like receptor 7 [3])
CCN1CCN(CCCn2c(O)nc3c(N)ncnc32)CC1,inactive,43.1 µM,
CCN1CCN(CCCn2cnc3c(N4CCCCC4)ncnc32)CC1,inactive,23.9 µM,
CCN1CCN(CCCn2cnc3c(N4CCNCC4)ncnc32)CC1,inactive,39.3 µM,
CCN(CCO)CCCC(C)Nc1ccnc2cc(Cl)ccc12 (configuration not stated) [HYDROXYCHLOROQUINE],,8.6 µM,
CCN1CCN(c2ncnc3c2ncn3CCCN2CCCCC2)CC1,inactive,15.8 µM,
CCN1CCN(c2ncnc3c2ncn3CCCN2CCCC2)CC1,inactive,48.3 µM,
CCN1CCN(c2ncnc3c2ncn3CCCN2CCNCC2)CC1,inactive,,
CCN1CCN(c2ncnc3c2ncn3CCCN2CCOCC2)CC1,inactive,40 µM,
CCN1CCN(CCCn2cnc3c(N4CCOCC4)ncnc32)CC1,inactive,25 µM,
CCCCOc1nc(N)c2nc(O)n(CCCN3CCCCC3)c2n1,,,2.6 µM
